ChEMBL document CHEMBL3880421, “Indazole compounds and pharmaceutical compositions for inhibiting protein kinases, and methods for their use” (2003)

Assay: Antiproliferative activity against VEGF-stimulated HUVEC cells assessed as reduction in cell viability at 10 nM preincubated for 1 hr followed by addition of VEGF measured after 72 hrs by MTT assay
Assay type: functional
Conditions: Homo sapiens

SMILES	inhibition at 0.01 µM [%]
CCC(C(=O)Nc1cccc(C(=O)c2ccc3c(/C=C/c4ccccc4)n[nH]c3c2)c1)c1ccccc1C (stereo not drawn)	3
O=C(Nc1cccc(Oc2ccc3c(/C=C/c4ccccc4)n[nH]c3c2)c1)C(=O)C1=CCCCC1	57
CC1(C)OC(=O)[C@H](CC(=O)Nc2cccc(Oc3ccc4c(/C=C/c5ccccc5)n[nH]c4c3)c2)O1	22
O=C(Nc1cccc(C(=O)c2ccc3c(/C=C/c4ccccc4)n[nH]c3c2)c1)C1=C[C@@H](O)[C@@H](O)[C@H](O)C1	-20
O=C(Nc1cccc(Nc2ccc3c(/C=C/c4ccccc4)n[nH]c3c2)c1)C1CC2C=CC1CC2 (stereo not drawn)	6
CN1CC(C(=O)Nc2cccc(Nc3ccc4c(/C=C/c5ccccc5)n[nH]c4c3)c2)CC1=O (stereo not drawn)	20
C[C@@H]1[C@H](C)[C@H](C)C[C@@H]1C(=O)Nc1cccc(Oc2ccc3c(/C=C/c4ccccc4)n[nH]c3c2)c1	23
Cc1cc(C(=O)Nc2cccc(Nc3ccc4c(/C=C/c5ccccc5)n[nH]c4c3)c2)no1	6
CC(C)=NOC(C)C(=O)Nc1cccc(Oc2ccc3c(/C=C/c4ccccc4)n[nH]c3c2)c1 (stereo not drawn)	80
O=C(Nc1cccc(Nc2ccc3c(/C=C/c4ccccc4)n[nH]c3c2)c1)C1CC2CC(O)C1C2 (stereo not drawn)	-20
Cc1cc(C(=O)Nc2cccc(Nc3ccc4c(/C=C/c5ccccc5)n[nH]c4c3)c2)c(C)[nH]1	76
O=C(Cc1cc(F)cc(F)c1)Nc1cccc(Nc2ccc3c(/C=C/c4ccccc4)n[nH]c3c2)c1	77
O=C(c1cccc(NC(=O)c2cc(=O)cco2)c1)c1ccc2c(/C=C/c3ccccc3)n[nH]c2c1	-13
O=C(/C=C/C1C[C@H]2C=C[C@H]1C2)Nc1cccc(Oc2ccc3c(/C=C/c4ccccc4)n[nH]c3c2)c1 (stereo partly drawn)	48
O=C(c1cccc(NC(=O)c2cc(=O)[nH]c(=O)[nH]2)c1)c1ccc2c(/C=C/c3ccccc3)n[nH]c2c1	14
O=C(Nc1cccc(Oc2ccc3c(/C=C/c4ccccc4)n[nH]c3c2)c1)C1CC2C=CCC(C2)C1 (stereo not drawn)	17
O=C(Nc1cccc(Nc2ccc3c(/C=C/c4ccccc4)n[nH]c3c2)c1)c1cc(=O)cco1	17
CC(C)CC(O)C(=O)Nc1cccc(C(=O)c2ccc3c(/C=C/c4ccccc4)n[nH]c3c2)c1 (stereo not drawn)	47
CN(C)C(=S)SCC(=O)Nc1cccc(Nc2ccc3c(/C=C/c4ccccc4)n[nH]c3c2)c1	32
O=C(Cc1ccccc1)C(=O)Nc1cccc(Oc2ccc3c(/C=C/c4ccccc4)n[nH]c3c2)c1	25
O=C(Cc1cccnc1)Nc1cccc(Nc2ccc3c(/C=C/c4ccccc4)n[nH]c3c2)c1	43
CO[C@H](C(=O)Nc1cccc(Nc2ccc3c(/C=C/c4ccccc4)n[nH]c3c2)c1)c1ccccc1	80
COc1ccc(C#N)c(C(=O)Nc2cccc(Nc3ccc4c(/C=C/c5ccccc5)n[nH]c4c3)c2)c1	-18
CC(C)CC(O)C(=O)Nc1cccc(Nc2ccc3c(/C=C/c4ccccc4)n[nH]c3c2)c1 (stereo not drawn)	25
CC(=O)N1CCC(C(=O)Nc2cccc(C(=O)c3ccc4c(/C=C/c5ccccc5)n[nH]c4c3)c2)CC1	33
CC(C)(C)[C@@H](O)C(=O)Nc1cccc(Oc2ccc3c(/C=C/c4ccccc4)n[nH]c3c2)c1	30

SMILES	inhibition at 0.01 µM [%]
O=C(Cc1cc(F)ccc1F)Nc1cccc(Oc2ccc3c(/C=C/c4ccccc4)n[nH]c3c2)c1	91
O=C(Nc1cccc(Nc2ccc3c(/C=C/c4ccccc4)n[nH]c3c2)c1)C1C[C@H]2C[C@@H]1CCC2O (stereo partly drawn)	-9
O=C1C[C@H](C(=O)Nc2cccc(C(=O)c3ccc4c(/C=C/c5ccccc5)n[nH]c4c3)c2)NC(=O)N1	-36
COc1cccc(CC(=O)Nc2cccc(C(=O)c3ccc4c(/C=C/c5ccccc5)n[nH]c4c3)c2)c1	87
O=C1NCC(C(=O)Nc2cccc(Oc3ccc4c(/C=C/c5ccccc5)n[nH]c4c3)c2)N1 (stereo not drawn)	40
O=C(Nc1cccc(Oc2ccc3c(/C=C/c4ccccc4)n[nH]c3c2)c1)c1cc(=O)[nH]c(=O)[nH]1	90
CN(C)C(=S)SCC(=O)Nc1cccc(C(=O)c2ccc3c(/C=C/c4ccccc4)n[nH]c3c2)c1	25
CC1(C)C(C(=O)Nc2cccc(Nc3ccc4c(/C=C/c5ccccc5)n[nH]c4c3)c2)C1(C)C	25
C[C@@H](CC(=O)Nc1cccc(Oc2ccc3c(/C=C/c4ccccc4)n[nH]c3c2)c1)c1ccccc1	42
CCNc1ccccc1C(=O)Nc1cccc(C(=O)c2ccc3c(/C=C/c4ccccc4)n[nH]c3c2)c1	54
O=C(c1cccc(NC(=O)C2CC3C=CC2CC3)c1)c1ccc2c(/C=C/c3ccccc3)n[nH]c2c1 (stereo not drawn)	42
CC(=O)N1CCCC1C(=O)Nc1cccc(Nc2ccc3c(/C=C/c4ccccc4)n[nH]c3c2)c1 (stereo not drawn)	-2
O=C(CCC(=O)N1CCCC1)Nc1cccc(Oc2ccc3c(/C=C/c4ccccc4)n[nH]c3c2)c1	48
O=C(CC1=CCCCC1)Nc1cccc(Oc2ccc3c(/C=C/c4ccccc4)n[nH]c3c2)c1	92
COc1ccc(C#N)c(C(=O)Nc2cccc(C(=O)c3ccc4c(/C=C/c5ccccc5)n[nH]c4c3)c2)c1	-20
O=C(Nc1cccc(Nc2ccc3c(/C=C/c4ccccc4)n[nH]c3c2)c1)C1C[C@H]2C=C[C@H]1C2 (stereo partly drawn)	5
O=C(Nc1cccc(Nc2ccc3c(/C=C/c4ccccc4)n[nH]c3c2)c1)C1CCOC1 (stereo not drawn)	-3
O=C(c1cccc(NC(=O)C2C[C@H]3C[C@@H]2CCC3O)c1)c1ccc2c(/C=C/c3ccccc3)n[nH]c2c1 (stereo partly drawn)	27
CC(=O)N1CCCC1C(=O)Nc1cccc(C(=O)c2ccc3c(/C=C/c4ccccc4)n[nH]c3c2)c1 (stereo not drawn)	10
O=C(Cc1cc(F)cc(F)c1)Nc1cccc(C(=O)c2ccc3c(/C=C/c4ccccc4)n[nH]c3c2)c1	87
O=C1CC[C@H](C(=O)Nc2cccc(Oc3ccc4c(/C=C/c5ccccc5)n[nH]c4c3)c2)N1	32
O=C(Cn1ccc2ccccc21)Nc1cccc(Nc2ccc3c(/C=C/c4ccccc4)n[nH]c3c2)c1	-7
CC(C)(C)c1ccc(C(=O)Nc2cccc(Nc3ccc4c(/C=C/c5ccccc5)n[nH]c4c3)c2)o1	60
COc1cccc(/C=C/C(=O)Nc2cccc(C(=O)c3ccc4c(/C=C/c5ccccc5)n[nH]c4c3)c2)c1	35
CC1(C)C(C(=O)Nc2cccc(Oc3ccc4c(/C=C/c5ccccc5)n[nH]c4c3)c2)C1(C)C	71
CC(C)=CC1C(C(=O)Nc2cccc(Nc3ccc4c(/C=C/c5ccccc5)n[nH]c4c3)c2)C1(C)C (stereo not drawn)	16

SMILES	inhibition at 0.01 µM [%]
COc1cccc(CC(=O)Nc2cccc(Oc3ccc4c(/C=C/c5ccccc5)n[nH]c4c3)c2)c1	86
O=C(Nc1cccc(Nc2ccc3c(/C=C/c4ccccc4)n[nH]c3c2)c1)c1cccc2[nH]ccc12	94
O=C(Nc1cccc(Oc2ccc3c(/C=C/c4ccccc4)n[nH]c3c2)c1)C(O)c1ccccc1 (stereo not drawn)	56
O=C(Nc1cccc(Oc2ccc3c(/C=C/c4ccccc4)n[nH]c3c2)c1)C1CCOC1 (stereo not drawn)	40
CN1CC(C(=O)Nc2cccc(C(=O)c3ccc4c(/C=C/c5ccccc5)n[nH]c4c3)c2)CC1=O (stereo not drawn)	10
O=C(/C=C/C(=O)Nc1cccc(Oc2ccc3c(/C=C/c4ccccc4)n[nH]c3c2)c1)NCC1CC1	36
O=C(Nc1cccc(Nc2ccc3c(/C=C/c4ccccc4)n[nH]c3c2)c1)C1=C[C@@H](O)[C@@H](O)[C@H](O)C1	6
CC(=O)NC(C)(C)CC(=O)Nc1cccc(Nc2ccc3c(/C=C/c4ccccc4)n[nH]c3c2)c1	-9
Cc1ccc(C2(C(=O)Nc3cccc(C(=O)c4ccc5c(/C=C/c6ccccc6)n[nH]c5c4)c3)CC2)cc1	0
O=C(Cn1ccc2ccccc21)Nc1cccc(C(=O)c2ccc3c(/C=C/c4ccccc4)n[nH]c3c2)c1	-11
CC(C)=CC1C(C(=O)Nc2cccc(C(=O)c3ccc4c(/C=C/c5ccccc5)n[nH]c4c3)c2)C1(C)C (stereo not drawn)	3
O=C(Nc1cccc(Nc2ccc3c(/C=C/c4ccccc4)n[nH]c3c2)c1)C1CC2C=CCC(C2)C1 (stereo not drawn)	-17
CC(C)[C@@H](O)C(=O)Nc1cccc(Nc2ccc3c(/C=C/c4ccccc4)n[nH]c3c2)c1	3
Cc1cc(C(=O)Nc2cccc(Oc3ccc4c(/C=C/c5ccccc5)n[nH]c4c3)c2)c(C)[nH]1	52
CC(=O)c1ccc(C(=O)Nc2cccc(Nc3ccc4c(/C=C/c5ccccc5)n[nH]c4c3)c2)s1	78
O=C(CC1=CCCCC1)Nc1cccc(Nc2ccc3c(/C=C/c4ccccc4)n[nH]c3c2)c1	81
CCCN(CCC)CC(=O)Nc1cccc(Oc2ccc3c(/C=C/c4ccccc4)n[nH]c3c2)c1	25
CC1(C)OC(=O)CC1C(=O)Nc1cccc(C(=O)c2ccc3c(/C=C/c4ccccc4)n[nH]c3c2)c1 (stereo not drawn)	5
O=C(Cc1cccnc1)Nc1cccc(Oc2ccc3c(/C=C/c4ccccc4)n[nH]c3c2)c1	76
Cc1ccc(CCC(=O)Nc2cccc(Nc3ccc4c(/C=C/c5ccccc5)n[nH]c4c3)c2)cc1	29
Cc1ccc(C2(C(=O)Nc3cccc(Oc4ccc5c(/C=C/c6ccccc6)n[nH]c5c4)c3)CC2)cc1	4
O=C(c1cccc(NC(=O)C(O)c2ccccc2)c1)c1ccc2c(/C=C/c3ccccc3)n[nH]c2c1 (stereo not drawn)	3
Cc1ccc(C2(C(=O)Nc3cccc(Nc4ccc5c(/C=C/c6ccccc6)n[nH]c5c4)c3)CC2)cc1	2
CCCN(CCC)CC(=O)Nc1cccc(C(=O)c2ccc3c(/C=C/c4ccccc4)n[nH]c3c2)c1	-2
C[C@@]12C[C@H]3C[C@H]1C[C@@]3(C(=O)Nc1cccc(Oc3ccc4c(/C=C/c5ccccc5)n[nH]c4c3)c1)C2	30
CCO/C(C)=C/C(=O)Nc1cccc(Nc2ccc3c(/C=C/c4ccccc4)n[nH]c3c2)c1	85
